Laboratory results taken from ChEMBL document CHEMBL5518230, “Identification of a Novel Selective CDK9 Inhibitor for the Treatment of CRC: Design, Synthesis, and Biological Activity Evaluation” (J Med Chem, 2024).
pIC50: −log10 of the molar value. The source made the active and inactive calls. The rule behind the calls is not given here.

Experiments:
[1] = target: TGF-beta receptor type-2 (Homo sapiens) (UniProt P37173); test: Inhibition of human TGFbetaR2 at 100 nM by kinase profiling assay relative to control
HCT-116 [2] = test: Antitumor activity against human HCT-116 cells xenografted in BALB/c mouse assessed as downregulation of RNA polymerase II phosphorylation at 25 mg/kg,po administrated once daily for 3 weeks by Western blotting analysis; type: functional, organism-based
[3] = AUC (0 to t) in Sprague-Dawley rat at 2 mg/kg,iv administration measured for 0.25 to 24 hrs by LC-MS/MS analysis; type: ADME, organism-based; settings: in vivo, time 0.25-24 hrs
HT-29 = test: Growth inhibition of human HT-29 cells incubated for 48 hrs by CCK-8 assay; type: functional
HCT-116 [4] = test: Induction of apoptosis in human HCT-116 cells assessed as increase in late apoptotic cells incubated for 48 hrs by Annexin V-FITC/PI staining based flow cytometric analysis; type: functional, cell-based
[5] = Growth inhibition of human CCC-HIE-2 cells incubated for 48 hrs by CCK-8 assay; type: toxicity, cell-based
[6] = MRT (0 to infinity) in Sprague-Dawley rat at 2 mg/kg,iv administration measured for 0.25 to 24 hrs by LC-MS/MS analysis; type: ADME, organism-based; settings: in vivo, time 0.25-24 hrs
[7] = target: Serine/threonine-protein kinase SIK2 (Homo sapiens) (UniProt Q9H0K1); test: Inhibition of human QIK at 100 nM by kinase profiling assay relative to control
HCT-116 [8] = test: Induction of apoptosis in human HCT-116 cells assessed as increase in red fluorescence emission by TUNEL staining fluorescence microscopic analysis; type: functional, cell-based
[9] = target: T1, Cyclin-dependent kinase 9 (Homo sapiens, UniProt P50750); test: Inhibition of CDK9 (unknown origin)
[10] = target: Serine/threonine-protein kinase PLK2 (Homo sapiens) (UniProt Q9NYY3); test: Inhibition of human PLK2 at 100 nM by kinase profiling assay relative to control
[11] = Half life in Sprague-Dawley rat at 2 mg/kg,iv administration measured for 0.25 to 24 hrs by LC-MS/MS analysis; type: ADME, organism-based; settings: in vivo, time 0.25-24 hrs
HCT-116 [12] = test: Induction of apoptosis in human HCT-116 cells assessed as downregulation of RNA polymerase II phosphorylation at Ser2 residue at 25 to 400 nM incubated for 48 hrs by Western blotting analysis; type: functional, cell-based; settings: dose 25-400 nM
[13] = target: Protein kinase C alpha type (Homo sapiens) (UniProt P17252); test: Inhibition of human PKCalpha at 100 nM by kinase profiling assay relative to control
HCT-116 [14] = test: Induction of apoptosis in human HCT-116 cells assessed as increase in early apoptotic cells incubated for 48 hrs by Annexin V-FITC/PI staining based flow cytometric analysis; type: functional, cell-based
[15] = target: Activin receptor type-1B (Homo sapiens) (UniProt P36896); test: Inhibition of human ALK4 at 100 nM by kinase profiling assay relative to control
HCT-116 [16] = test: Induction of apoptosis in human HCT-116 cells assessed as downregulation of c-Myc mRNA expression at 25 to 400 nM incubated for 48 hrs by qRT-PCR analysis; type: functional, cell-based; settings: dose 25-400 nM
SW480 = test: Growth inhibition of human SW480 cells incubated for 48 hrs by CCK-8 assay; type: functional
HCT-116 [17] = test: Induction of apoptosis in human HCT-116 cells assessed as downregulation of […] mRNA expression at 25 to 400 nM incubated for 48 hrs by qRT-PCR analysis; type: functional, cell-based; settings: dose 25-400 nM
[18] = Intrinsic clearance in human liver microsomes at 100 uM measured upto 60 mins in presence of NADPH by LC-MS/MS analysis; type: ADME, Microsome; settings: 1 h
[19] = target: Cyclin-dependent kinase 6 (Homo sapiens, UniProt Q00534); test: Inhibition of CDK6 (unknown origin)
HCT-116 [20] = test: Antitumor activity against human HCT-116 cells xenografted in BALB/c mouse assessed as upregulation of PARP expression at 50 mg/kg,po administrated once daily for 3 weeks by Western blotting analysis; type: functional, organism-based
[21] = target: cAMP-dependent protein kinase catalytic subunit alpha (Homo sapiens) (UniProt P17612); test: Inhibition of human PKACalpha at 100 nM by kinase profiling assay relative to control
[22] = Cmax in Sprague-Dawley rat at 2 mg/kg,iv administration measured for 0.25 to 24 hrs by LC-MS/MS analysis; type: ADME, organism-based; settings: in vivo, time 0.25-24 hrs
[23] = Half life in human plasma measured upto 120 mins by LC-MS/MS analysis; type: ADME, cell-free
CYP2D6 = CYP2D6 (Homo sapiens, UniProt P10635); test: Inhibition of CYP2D6 in human liver microsomes using quinidine as […] at 10 uM preincubated for 10 mins followed by NADPH addition measured after 15 mins by LC-MS/MS analysis relative to control; type: ADME, Microsome; settings: time 25 min
[24] = target: T1, Cyclin-dependent kinase 9; test: Inhibition of human CDK9 at 100 nM by kinase profiling assay relative to control
[25] = target: Mitogen-activated protein kinase kinase kinase kinase 4 (Homo sapiens) (UniProt O95819); test: Inhibition of human HGK at 100 nM by kinase profiling assay relative to control
[26] = AUC (0 to t) in Sprague-Dawley rat at 10 mg/kg,po administration measured for 0.25 to 24 hrs by LC-MS/MS analysis; type: ADME, organism-based; settings: in vivo, time 0.25-24 hrs
CYP3A4 = CYP3A4 (Homo sapiens, UniProt P08684); test: Inhibition of CYP3A4 in human liver microsomes using ketoconazole as […] at 10 uM preincubated for 10 mins followed by NADPH addition measured after 15 mins by LC-MS/MS analysis relative to control; type: ADME, Microsome; settings: probe ketoconazole, time 25 min
[27] = Half life in human liver microsomes at 100 uM measured upto 60 mins in presence of NADPH by LC-MS/MS analysis; type: ADME, Microsome
[28] = Half life in Sprague-Dawley rat at 10 mg/kg,po administration measured for 0.25 to 24 hrs by LC-MS/MS analysis; type: ADME, organism-based; settings: in vivo, time 0.25-24 hrs
HCT-116 [29] = test: Induction of apoptosis in human HCT-116 cells assessed as downregulation of PARP expression at 25 to 400 nM incubated for 48 hrs by Western blotting analysis; type: functional, cell-based; settings: dose 25-400 nM
[30] = target: Cyclin-dependent kinase 8 (Homo sapiens, UniProt P49336); test: Inhibition of CDK8 (unknown origin)
[31] = target: Serine/threonine-protein kinase Nek1 (Homo sapiens) (UniProt Q96PY6); test: Inhibition of human NEK1 at 100 nM by kinase profiling assay relative to control
[32] = target: Serine/threonine-protein kinase PAK 4 (Homo sapiens) (UniProt O96013); test: Inhibition of human PAK4 at 100 nM by kinase profiling assay relative to control
[33] = target: Cyclin-dependent kinase 2 (Homo sapiens, UniProt P24941); test: Inhibition of CDK2 (unknown origin)
HCT-116 [34] = test: Inhibition of colony formation in human HCT-116 cells assessed as reduction in colony number incubated for 14 days by crystal violet staining assay; type: functional, cell-based; settings: time 14.0 day
[35] = target: Cyclin-dependent kinase 4 (Homo sapiens, UniProt P11802); test: Inhibition of CDK4 (unknown origin)
Cyclin-dependent kinase 4, sequence (P11802 whole entry): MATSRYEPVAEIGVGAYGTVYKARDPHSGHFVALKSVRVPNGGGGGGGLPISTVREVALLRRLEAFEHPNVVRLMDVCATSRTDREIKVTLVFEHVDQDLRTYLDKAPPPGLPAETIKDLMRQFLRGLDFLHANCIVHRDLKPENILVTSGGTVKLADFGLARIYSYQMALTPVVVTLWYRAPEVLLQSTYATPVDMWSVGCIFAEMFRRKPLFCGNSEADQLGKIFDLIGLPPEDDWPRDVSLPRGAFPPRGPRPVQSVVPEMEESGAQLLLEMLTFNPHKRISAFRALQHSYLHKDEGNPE

T1 sequence (P50750 whole entry): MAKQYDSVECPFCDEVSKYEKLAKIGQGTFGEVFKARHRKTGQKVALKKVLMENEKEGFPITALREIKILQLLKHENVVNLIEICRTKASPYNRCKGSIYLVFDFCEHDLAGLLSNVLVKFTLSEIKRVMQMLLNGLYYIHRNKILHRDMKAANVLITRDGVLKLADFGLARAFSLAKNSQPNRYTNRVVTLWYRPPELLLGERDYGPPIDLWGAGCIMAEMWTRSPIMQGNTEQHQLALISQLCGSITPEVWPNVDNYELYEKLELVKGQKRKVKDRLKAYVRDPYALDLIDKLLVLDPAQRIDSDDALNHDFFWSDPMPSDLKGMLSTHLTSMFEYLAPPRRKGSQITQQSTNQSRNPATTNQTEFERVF
CYP3A4, sequence (P08684 whole entry): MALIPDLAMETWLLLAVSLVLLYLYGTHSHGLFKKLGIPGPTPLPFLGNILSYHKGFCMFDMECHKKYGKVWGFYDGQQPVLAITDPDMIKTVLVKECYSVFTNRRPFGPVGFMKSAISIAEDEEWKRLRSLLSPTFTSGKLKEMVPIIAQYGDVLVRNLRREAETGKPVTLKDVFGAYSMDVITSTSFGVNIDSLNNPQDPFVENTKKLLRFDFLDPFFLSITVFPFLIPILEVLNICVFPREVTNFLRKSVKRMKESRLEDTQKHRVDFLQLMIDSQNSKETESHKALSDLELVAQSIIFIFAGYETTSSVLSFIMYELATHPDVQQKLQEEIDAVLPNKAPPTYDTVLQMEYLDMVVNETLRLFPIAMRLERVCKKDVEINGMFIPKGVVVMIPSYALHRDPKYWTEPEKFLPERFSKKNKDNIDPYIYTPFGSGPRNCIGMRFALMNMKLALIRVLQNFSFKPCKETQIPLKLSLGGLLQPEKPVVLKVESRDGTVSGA
Serine/threonine-protein kinase SIK2 (Homo sapiens), sequence (Q9H0K1 whole entry, looked up): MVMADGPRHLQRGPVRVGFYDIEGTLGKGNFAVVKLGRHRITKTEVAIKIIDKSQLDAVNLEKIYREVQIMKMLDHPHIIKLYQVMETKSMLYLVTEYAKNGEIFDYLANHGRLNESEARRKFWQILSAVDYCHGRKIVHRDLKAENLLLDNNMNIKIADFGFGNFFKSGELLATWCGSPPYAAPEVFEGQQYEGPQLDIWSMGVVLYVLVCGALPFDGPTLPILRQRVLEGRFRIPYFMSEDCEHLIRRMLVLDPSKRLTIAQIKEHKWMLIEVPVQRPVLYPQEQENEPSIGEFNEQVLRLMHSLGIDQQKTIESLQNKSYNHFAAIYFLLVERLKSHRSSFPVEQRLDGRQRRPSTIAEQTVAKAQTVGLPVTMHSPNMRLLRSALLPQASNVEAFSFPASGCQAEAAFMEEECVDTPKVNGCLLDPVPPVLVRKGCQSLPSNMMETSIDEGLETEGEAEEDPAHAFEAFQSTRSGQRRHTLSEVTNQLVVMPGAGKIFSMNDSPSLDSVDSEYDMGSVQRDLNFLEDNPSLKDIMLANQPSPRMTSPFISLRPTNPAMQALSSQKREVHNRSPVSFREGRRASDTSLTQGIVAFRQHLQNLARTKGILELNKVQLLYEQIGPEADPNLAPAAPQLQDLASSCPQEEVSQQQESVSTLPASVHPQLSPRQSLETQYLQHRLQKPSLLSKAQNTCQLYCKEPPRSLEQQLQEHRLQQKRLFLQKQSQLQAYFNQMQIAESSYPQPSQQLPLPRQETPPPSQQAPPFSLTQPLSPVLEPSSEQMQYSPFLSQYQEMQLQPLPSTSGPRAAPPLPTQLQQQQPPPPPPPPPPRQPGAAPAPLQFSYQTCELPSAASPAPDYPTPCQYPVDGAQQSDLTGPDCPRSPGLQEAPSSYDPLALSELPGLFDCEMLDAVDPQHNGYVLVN
Cyclin-dependent kinase 6, sequence (Q00534 whole entry): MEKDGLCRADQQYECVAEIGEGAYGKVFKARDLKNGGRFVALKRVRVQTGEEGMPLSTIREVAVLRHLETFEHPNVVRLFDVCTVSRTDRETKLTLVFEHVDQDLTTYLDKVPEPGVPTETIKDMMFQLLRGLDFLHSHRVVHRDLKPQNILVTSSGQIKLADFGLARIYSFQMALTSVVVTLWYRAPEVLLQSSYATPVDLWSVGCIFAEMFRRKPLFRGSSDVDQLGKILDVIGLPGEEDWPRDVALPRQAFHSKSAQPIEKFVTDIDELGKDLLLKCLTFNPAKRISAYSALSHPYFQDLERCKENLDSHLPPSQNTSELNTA
TGF-beta receptor type-2 (Homo sapiens), sequence (P37173 whole entry): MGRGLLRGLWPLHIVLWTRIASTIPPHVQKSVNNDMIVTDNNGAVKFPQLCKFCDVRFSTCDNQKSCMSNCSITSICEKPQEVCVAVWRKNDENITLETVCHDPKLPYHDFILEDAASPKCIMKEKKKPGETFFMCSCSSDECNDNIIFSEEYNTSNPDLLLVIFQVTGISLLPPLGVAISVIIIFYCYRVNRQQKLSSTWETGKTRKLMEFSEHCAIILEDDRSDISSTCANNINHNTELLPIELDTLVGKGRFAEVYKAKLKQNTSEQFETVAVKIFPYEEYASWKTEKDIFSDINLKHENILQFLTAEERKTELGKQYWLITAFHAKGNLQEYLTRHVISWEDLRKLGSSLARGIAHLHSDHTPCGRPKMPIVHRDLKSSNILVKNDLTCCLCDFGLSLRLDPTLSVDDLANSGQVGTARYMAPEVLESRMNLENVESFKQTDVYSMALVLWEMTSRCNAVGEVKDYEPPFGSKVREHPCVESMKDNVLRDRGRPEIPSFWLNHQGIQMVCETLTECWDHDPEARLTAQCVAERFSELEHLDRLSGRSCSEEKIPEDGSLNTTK
CYP2D6, sequence (P10635 whole entry): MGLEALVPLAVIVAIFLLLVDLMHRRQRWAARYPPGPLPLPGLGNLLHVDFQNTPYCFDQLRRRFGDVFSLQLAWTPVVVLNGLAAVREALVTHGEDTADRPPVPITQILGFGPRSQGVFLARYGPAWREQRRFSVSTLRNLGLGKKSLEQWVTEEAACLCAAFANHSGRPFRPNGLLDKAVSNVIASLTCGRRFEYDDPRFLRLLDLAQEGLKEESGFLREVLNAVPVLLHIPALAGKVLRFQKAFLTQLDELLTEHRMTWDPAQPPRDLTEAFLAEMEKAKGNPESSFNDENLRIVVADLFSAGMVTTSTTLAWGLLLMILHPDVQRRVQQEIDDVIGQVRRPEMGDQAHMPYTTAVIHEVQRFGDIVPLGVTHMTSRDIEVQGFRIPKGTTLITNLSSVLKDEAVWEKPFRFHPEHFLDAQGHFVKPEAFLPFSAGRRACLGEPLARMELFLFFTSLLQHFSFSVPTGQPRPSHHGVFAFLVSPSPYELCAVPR
Serine/threonine-protein kinase PLK2 (Homo sapiens), sequence (Q9NYY3 whole entry, looked up): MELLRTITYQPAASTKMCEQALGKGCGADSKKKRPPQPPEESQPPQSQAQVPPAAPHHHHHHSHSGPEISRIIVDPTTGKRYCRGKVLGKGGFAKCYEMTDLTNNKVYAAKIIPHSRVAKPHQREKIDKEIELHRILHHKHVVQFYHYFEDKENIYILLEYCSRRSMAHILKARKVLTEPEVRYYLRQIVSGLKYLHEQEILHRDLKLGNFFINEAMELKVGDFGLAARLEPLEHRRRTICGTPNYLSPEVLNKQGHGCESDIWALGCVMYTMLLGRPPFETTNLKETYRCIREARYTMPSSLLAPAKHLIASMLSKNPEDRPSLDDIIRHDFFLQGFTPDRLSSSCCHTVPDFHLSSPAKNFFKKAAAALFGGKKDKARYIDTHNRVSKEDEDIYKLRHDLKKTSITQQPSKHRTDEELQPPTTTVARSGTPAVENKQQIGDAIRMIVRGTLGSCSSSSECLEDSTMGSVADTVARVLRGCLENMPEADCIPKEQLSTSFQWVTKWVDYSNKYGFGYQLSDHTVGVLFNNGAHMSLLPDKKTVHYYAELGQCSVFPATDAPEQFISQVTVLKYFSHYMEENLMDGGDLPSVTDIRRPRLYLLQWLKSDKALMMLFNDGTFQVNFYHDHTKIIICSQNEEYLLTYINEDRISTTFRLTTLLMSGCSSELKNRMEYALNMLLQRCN
Cyclin-dependent kinase 8, sequence (P49336 whole entry): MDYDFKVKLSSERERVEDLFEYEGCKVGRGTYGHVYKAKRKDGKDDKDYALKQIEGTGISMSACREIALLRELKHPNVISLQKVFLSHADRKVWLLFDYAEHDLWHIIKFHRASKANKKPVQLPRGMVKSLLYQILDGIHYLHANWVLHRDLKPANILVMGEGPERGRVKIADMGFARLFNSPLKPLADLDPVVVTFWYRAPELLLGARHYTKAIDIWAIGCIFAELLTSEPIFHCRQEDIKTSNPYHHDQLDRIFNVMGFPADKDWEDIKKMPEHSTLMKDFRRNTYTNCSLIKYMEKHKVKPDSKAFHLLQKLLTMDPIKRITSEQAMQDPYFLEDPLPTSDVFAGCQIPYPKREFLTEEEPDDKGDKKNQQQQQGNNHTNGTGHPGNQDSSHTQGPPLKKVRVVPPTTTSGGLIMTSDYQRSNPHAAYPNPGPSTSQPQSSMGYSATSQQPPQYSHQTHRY

## CC(C)n1nnc2ccc(-c3ccnc(Nc4cc(C(=O)N5CCCN(C)CC5)ccn4)c3)cc21
[1]
  inhibition: < 50%
HCT-116 [2]
  Activity: Active
[3]
  AUC(0-t): 361 ng·h/mL
HT-29
  GI50: 560 nM
HCT-116 [4]
  Activity: Dose-Dependent Effect
[5]
  GI50 at 48 h: 9.51 µM
[6]
  MRT inf: 1.77 h
[7]
  inhibition: < 50%
HCT-116 [8]
  Activity: Dose-Dependent Effect
[9]
  pIC50: 8.54
[10]
  inhibition: < 50%
[11]
  half-life: 102 min
HCT-116 [12]
  Activity: Active
[13]
  inhibition: < 50%
HCT-116 [14]
  Activity: Dose-Dependent Effect
[15]
  inhibition: < 50%
HCT-116 [16]
  Activity: Active
SW480
  GI50: 5.09 µM
HCT-116 [17]
  Activity: Active
[18]
  CLH: 49.6 µL/min/mg
[19]
  pIC50: 6.68
HCT-116 [20]
  Activity: Active
[21]
  inhibition: < 50%
[22]
  Cmax: 358 ng/mL
[23]
  half-life: > 289 min
CYP2D6
  inhibition at 0.25 h, 10 µM: 9.9%
[24]
  inhibition: > 90%
[25]
  inhibition: < 50%
[26]
  AUC(0-t): 168 ng·h/mL
CYP3A4
  inhibition at 0.25 h, 10 µM: 0%
[27]
  half-life at 100 µM: 25.2 min
[28]
  half-life: 317 min
HCT-116 [29]
  Activity: Active
[30]
  pIC50: < 6.30
[31]
  inhibition: < 50%
[32]
  inhibition: < 50%
[33]
  pIC50: < 6.30
HCT-116 [34]
  inhibition: Dose-Dependent Effect
[35]
  pIC50: < 6.30
